Measured values taken from article PMC8333425, “Discovery of a dual Ras and ARF6 inhibitor from a GPCR endocytosis screen” (Nature Communications, 2021).
“And” between values parts separate entries of the source, which are not always exact repeats. Identical values can stand only once. “Also recorded” adds a separate entry of the source.

Legend:
[1] = tested on: β-arrestin1 recruitment to B2R; test: BRET recruitment of β-arrestin1 to B2R; format: cell-based, human
Procedure: HEK293SL cells were seeded at a density of 7.5 × 10^5 cells per 100-mm dish and 24 h later, transiently transfected as such. For receptor internalization experiments, cells were transfected with 0.12 μg AT1R-RlucII, B2R-RlucII, or β2AR-RlucII and 0.48 μg of either rGFP-CAAX (to assess removal from the PM) or rGFP-FYVE (to assess accumulation in the endosomes). For β-arrestin recruitment assays, cells were transfected with 0.48 μg of receptor-YFP along with 0.12 μg of β-arrestin-RlucII. For β-arrestin/AP-2 binding experiments, cells were transfected with 1 μg Flag-AT1R, 1 μg β2-Adaptin-YFP, and 0.12 μg β-arrestin2-RlucII. For G protein activation, cells were transfected with 3 μg of sp-Flag-AT1R along with either 4.5 μg of the Gαq-polycistronic BRET sensor or 0.24 μg of the Gαi3-RlucII and 0.6 μg of GFP10-Gγ2 and Gβ1 sensors or 0.12 μg PKN-RBD-RlucII and 0.48 μg of rGFP-CAAX. For PKC activation, cells were transfected with 3 μg of sp-Flag-AT1R and 0.18 μg of the PKC sensor. For GTPase activation experiments, cells were transfected with 1 μg Flag-AT1R, 0.48 μg of rGFP-CAAX, and either 0.12 μg of GGA3-PBD-RlucII, PAK-CRIB-RlucII or Raf-RBD-RlucII. For biosensor validation experiments, cells were additionally transfected with 500 ng Flag-K-Ras-WT, Flag-K-Ras-G12V, Flag-K-Ras-SOS-CAAX, HA-ARF6-WT, HA-ARF6-T27N, Myc-Rac1-WT, Myc-Rac1-Q61L or Myc-Rac1-T17N. For PI3K/Akt activation experiments, cells were transfected with 0.48 μg of rGFP-CAAX and 0.12 μg of Akt (PH)-RlucII. After 18 h of transfection, the media was replaced and cells were divided for subsequent experiments. Cells were detached and seeded onto poly-L-ornithine-coated 96-well flat white bottom plates (BrandTech Scientific) at a density of 2.5 × 10^4 cells per well in media. The next day, cells were washed once with Tyrode’s buffer (140 mM NaCl, 2.7 mM KCl, 1 mM CaCl2, 12 mM NaHCO3, 5.6 mM D-glucose, 0.5 mM MgCl2, 0.37 mM NaH2PO4, 25 mM HEPES, pH 7.4) and left in Tyrode’s buffer. For kinetics of β-arrestin recruitment or β-arrestin binding to receptor and AP-2 experiments, cells were serum starved for 30 min, pretreated with 21 (50 µM) or Barbadin (100 µM) for 30 min, stimulated with 100 nM AngII or 1 µM BK and BRET signals were monitored at indicated times using a Victor X Light plate reader (PerkinElmer). Coelenterazine H (final concentration of 5 µM) was added 3–5 min prior to BRET measurements. Filter set was 460/80 nm and 535/30 nm for detecting the RlucII Renilla luciferase (donor) and YFP (acceptor) light emissions, respectively. The BRET ratio was determined by calculating the ratio of the light emitted by YFP over the light emitted by the RlucII. For G protein activation, cells were serum starved, pretreated with compounds for 30 min, stimulated with 100 nM AngII for 2 min (Gαq, Gαi3, and Rho sensors) or 5 min (PKC sensor). For the kinetics of GTPase and PI3K/Akt activation, cells were serum starved, pretreated with 21 (50 µM) or Wortmannin (200 nM) for 30 min, stimulated with ligand (100 nM AngII or 100 ng/ml EGF) and BRET signals were monitored at indicated times. For concentration-response curves, cells were serum-starved, pretreated with various concentrations of compounds for 30 min and stimulated with ligand (100 nM AngII, 1 µM BK, 10 µM Isoproterenol (Iso) or 100 ng/ml EGF) in Tyrode’s buffer for 30 min for receptor internalization, 10 min for ARF6, 2 min for Rac and Rho activation and 5 min for Ras activation and PI3K/Akt activation. BRET signals were monitored using a Synergy2 (BioTek) microplate reader and coelenterazine 400a (final concentrations of 5 µM) added 3–5 min prior to BRET measurements. Filter set was 410/80 nm and 515/30 nm for detecting the RlucII Renilla luciferase (donor) and rGFP/GFP10 (acceptor) light emissions, respectively. The BRET ratio was determined by calculating the ratio of the light emitted by rGFP/GFP10 over the light emitted by the RlucII.

K-Ras = K-Ras (Homo sapiens, UniProt P01116); test: In vitro mant-GTP exchange assay, purified K-Ras-WT with SOS1; format: biochemical; set-up: GST (N); FLAG (N); host or cells: E. coli BL21; settings: 50 μM
Chain of K-Ras (P01116 1-188 isoform P01116-2): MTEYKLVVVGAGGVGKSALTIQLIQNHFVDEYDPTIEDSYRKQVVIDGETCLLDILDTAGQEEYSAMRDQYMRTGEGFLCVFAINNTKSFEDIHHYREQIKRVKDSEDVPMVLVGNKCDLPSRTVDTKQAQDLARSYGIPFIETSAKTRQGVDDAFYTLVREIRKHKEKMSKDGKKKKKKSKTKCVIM
Procedure: Ras activity was assessed in a 384-well black bottom plate using the mant-GTP exchange factor assay that measures the uptake of the fluorescent nucleotide analog N-methylanthraniloyl-GTP (mant-GTP) into GTPases. For Ras activation, 2X exchange buffer, 1.66 μg of purified pGEX-6P-1-H-Ras or pGEX-6P-1-K-Ras-WT or pGEX-6P-1-K-Ras-Y32A were added per well in presence of DMSO, different concentrations of Rasarfin (as indicated) or 50 µM of compounds 21.4, 21.7, or 21.8. Using the Infinite 200 Pro plate reader (Tecan) with filters set at 360 nm and 440 nm for detecting the excitation and emissions, respectively, and temperature set at 20 °C, 5 readings were recorded every 5 s before the addition of either H2O, 40 mM EDTA or 0.66 μg purified SOS1. The fluorescence of mant-GTP uptake was measured every 30 sec for 30 min and quantified as the delta relative fluorescence units (RFU), which was calculated as the RFU post-addition minus the 5 averaged RFU pre-addition, per condition.

`CC(C)C(=O)N1CCN(c2ccc(NC(=O)c3cc4ccccc4o3)cc2Cl)CC1` [Compound 21] was tested, and the “β-arrestin1 recruitment to B2R at the PM” value ([1]; 50 μM) was “did not preclude; also recorded: lack of inhibition”, the “BK-promoted BRET, Barr1” value ([1]; Time 0 min) was 0 and the “BK-promoted BRET, Barr1” value ([1]; Time 5 min, listed as Comp 21) was 0.04767 and 0.09406 and 0.08157. The “BK-promoted BRET, Barr1” value ([1]; Time 10 min, listed as Comp 21) was 0.06518 and 0.1019 and 0.08421, the “BK-promoted BRET, Barr1” value ([1]; Time 15 min, listed as Comp 21) was 0.06934 and 0.1045 and 0.09014 and the “BK-promoted BRET, Barr1” value ([1]; Time 30 min, listed as Comp 21) was 0.0673 and 0.09261 and 0.08457. The “BK-promoted BRET, Barr1” value ([1]; Time 60 min, listed as Comp 21) was 0.06921 and 0.07361 and 0.07333 and the “SOS-mediated mant-GTP binding onto purified K-Ras” value (K-Ras) was “inhibited the SOS-mediated mant-GTP binding”.
